Laboratory results published in patent publication US20250311722A1, “IMPROVED BIOCIDE” (Purgos ApS, priority 2022, published 2025).

Key:
bacteria = assay: NBDA in different PVB dispersions at 32° C., ATP analysis (LuminUltra); assay type: cell-based; set-up: bacteria count 6 mo after adding NBDA / bacteria count 9 mo after adding NBDA / bacteria count 1 d after adding NBDA / bacteria count 1 wk after adding NBDA / bacteria count 1 mo after adding NBDA / bacteria count 3 mo after adding NBDA / bacteria count after 4 mo after addition of NBDA / bacteria count after 6 mo after addition of NBDA: unit not given here; settings: 0.5% NBDA; for bacteria count after 4 mo after addition of NBDA / bacteria count after 4 wk after addition of NBDA / bacteria count after 6 mo after addition of NBDA / bacteria count after 8 wk after addition of NBDA / bacteria count after 9 mo after addition of NBDA / bacteria count after 12 mo after addition of NBDA: long term
Protocol: The amines selected from stock samples was made from factory prepared stock and sealed solutions delivered in technical quality (95-99.9%). […] Tertiary amine, water and PVB-dispersion was mechanically stirred in IKA vertical fixed blade stirrer for sampling in 2-5 minutes. Conditions was industrial clean, meaning no special precautions was taken to prevent contamination, except normal cleanliness and between operations dishwashing procedures. Working temperatures was 20-25 degre Celsius, and all incubations was made in thermostatic 32-degree Celsius incubator ovens for bottled flasks and open petri dishes. […] The protocol is provided by LuminUltra Technologies. Basically all tested dispersions are manufactured in same way, with only differences in additives, and the variations of origin/source of the waste material (See Example 1). However the specification of the SharkDispersions-all have same basic composition since the stability of the dispersion forces this. The in situ contamination of the production batches may also vary in handling and different storage methods in flasks, IBC's and tanks. In all production the dispersion before treated with tertiary amine is pasteurized due to the general level of production temperatures +90 degrees for several minutes. The biocidal effectivity of NBDA in different PVB dispersions was measured as explained above.

[1] = 10% N-BDA in water; cited from earlier work
[2] = PVB dispersion FX2, 32° C., with 0.5% peroxide
[3] = PVB dispersion FX2, 32° C., without peroxide
[4] = PVB dispersion FX6, 32° C., with 0.5% peroxide
[5] = PVB dispersion FX6, 32° C., without peroxide
[6] = PVB dispersion SX, 32° C., with 0.5% peroxide
[7] = PVB dispersion SX, 32° C., without peroxide
[8] = PVB dispersion WX2s, 32° C., with 0.5% peroxide
[9] = PVB dispersion WX2s, 32° C., without peroxide
[10] = PVB dispersion WX, 32° C., with 0.5% peroxide
[11] = PVB dispersion WX, 32° C., without peroxide

Structure (SMILES): CCCCN(CCO)CCO [NBDA, N-butyldiethanolamine]
- bacteria count 1 mo after adding NBDA (bacteria; [2]): 22
- bacteria count 1 wk after adding NBDA (bacteria; [2]): 9.9
- bacteria count 3 mo after adding NBDA (bacteria; [2]): 3
- bacteria count 1 d after adding NBDA (bacteria; [2]): 17.6
- bacteria count 1 mo after adding NBDA (bacteria; [3]): 77.1
- bacteria count 1 wk after adding NBDA (bacteria; [3]): 1.8
- bacteria count 3 mo after adding NBDA (bacteria; [3]): 64
- bacteria count 6 mo after adding NBDA (bacteria; [3]): 15.5
- bacteria count 1 d after adding NBDA (bacteria; [3]): 7.7
- bacteria count 1 mo after adding NBDA (bacteria; [4]): 0.93
- bacteria count 1 wk after adding NBDA (bacteria; [4]): 239
- bacteria count 3 mo after adding NBDA (bacteria; [4]): 28
- bacteria count 6 mo after adding NBDA (bacteria; [4]): 62
- bacteria count 9 mo after adding NBDA (bacteria; [4]): 15.4
- bacteria count 1 d after adding NBDA (bacteria; [4]): 31.7
- bacteria count 1 mo after adding NBDA (bacteria; [5]): 0.93
- bacteria count 1 wk after adding NBDA (bacteria; [5]): 25
- bacteria count 3 mo after adding NBDA (bacteria; [5]): 1.4
- bacteria count 6 mo after adding NBDA (bacteria; [5]): 1.1
- bacteria count 9 mo after adding NBDA (bacteria; [5]): 1.51
- bacteria count 1 d after adding NBDA (bacteria; [5]): 48.5
- bacteria count 1 mo after adding NBDA (bacteria; [6]): 24.2
- bacteria count 1 wk after adding NBDA (bacteria; [6]): 48.1
- bacteria count 3 mo after adding NBDA (bacteria; [6]): 54.6
- bacteria count 6 mo after adding NBDA (bacteria; [6]): 53
- bacteria count 9 mo after adding NBDA (bacteria; [6]): 21.9
- bacteria count 1 d after adding NBDA (bacteria; [6]): 24.3
- bacteria count 1 mo after adding NBDA (bacteria; [7]): 19.5
- bacteria count 1 wk after adding NBDA (bacteria; [7]): 42.1
- bacteria count 3 mo after adding NBDA (bacteria; [7]): 26
- bacteria count 6 mo after adding NBDA (bacteria; [7]): 9
- bacteria count 9 mo after adding NBDA (bacteria; [7]): 15.7
- bacteria count 1 d after adding NBDA (bacteria; [7]): 17.2
- bacteria count 1 mo after adding NBDA (bacteria; [8]): 74.9
- bacteria count 1 wk after adding NBDA (bacteria; [8]): 4.5
- bacteria count 3 mo after adding NBDA (bacteria; [8]): 28.9
- bacteria count 6 mo after adding NBDA (bacteria; [8]): 7.8
- bacteria count 1 d after adding NBDA (bacteria; [8]): 29.7
- bacteria count 1 mo after adding NBDA (bacteria; [9]): 25.2
- bacteria count 1 wk after adding NBDA (bacteria; [9]): 7.2
- bacteria count 3 mo after adding NBDA (bacteria; [9]): 13
- bacteria count 6 mo after adding NBDA (bacteria; [9]): 39.9
- bacteria count 1 d after adding NBDA (bacteria; [9]): 17.6
- bacteria count 1 mo after adding NBDA (bacteria; [10]): 83.4
- bacteria count 1 wk after adding NBDA (bacteria; [10]): 79
- bacteria count 3 mo after adding NBDA (bacteria; [10]): 13.3
- bacteria count 6 mo after adding NBDA (bacteria; [10]): 63.8
- bacteria count 9 mo after adding NBDA (bacteria; [10]): 35
- bacteria count 1 d after adding NBDA (bacteria; [10]): 4.2
- bacteria count 1 mo after adding NBDA (bacteria; [11]): 31.6
- bacteria count 1 wk after adding NBDA (bacteria; [11]): 180
- bacteria count 3 mo after adding NBDA (bacteria; [11]): 7.4
- bacteria count 6 mo after adding NBDA (bacteria; [11]): 11.2
- bacteria count 9 mo after adding NBDA (bacteria; [11]): 57.7
- bacteria count 1 d after adding NBDA (bacteria; [11]): 110
- bacteria count after 4 mo after addition of NBDA (bacteria; PVB dispersion FX1, 32° C.): 10.1
- bacteria count after 4 wk after addition of NBDA (bacteria; PVB dispersion FX1, 32° C.): 3.7
- bacteria count after 6 mo after addition of NBDA (bacteria; PVB dispersion FX1, 32° C.): 1
- bacteria count after 8 wk after addition of NBDA (bacteria; PVB dispersion FX1, 32° C.): 18.5
- bacteria count after 9 mo after addition of NBDA (bacteria; PVB dispersion FX1, 32° C.): 34
- bacteria count after 12 mo after addition of NBDA (bacteria; PVB dispersion FX1, 32° C.): 2.3
- bacteria count after 4 mo after addition of NBDA (bacteria; PVB dispersion FX2, 32° C.): 13.1
- bacteria count after 4 wk after addition of NBDA (bacteria; PVB dispersion FX2, 32° C.): 12.4
- bacteria count after 6 mo after addition of NBDA (bacteria; PVB dispersion FX2, 32° C.): 6.9
- bacteria count after 8 wk after addition of NBDA (bacteria; PVB dispersion FX2, 32° C.): 4.6
- bacteria count after 9 mo after addition of NBDA (bacteria; PVB dispersion FX2, 32° C.): 67.9
- bacteria count after 12 mo after addition of NBDA (bacteria; PVB dispersion FX2, 32° C.): 15.6
- bacteria count after 4 mo after addition of NBDA (bacteria; PVB dispersion FX6, 32° C.): 9.1
- bacteria count after 4 wk after addition of NBDA (bacteria; PVB dispersion FX6, 32° C.): 64.3
- bacteria count after 6 mo after addition of NBDA (bacteria; PVB dispersion FX6, 32° C.): 52.1
- bacteria count after 8 wk after addition of NBDA (bacteria; PVB dispersion FX6, 32° C.): 12.1
- bacteria count after 9 mo after addition of NBDA (bacteria; PVB dispersion FX6, 32° C.): 7.3
- bacteria count after 12 mo after addition of NBDA (bacteria; PVB dispersion FX6, 32° C.): 367
- bacteria count after 4 mo after addition of NBDA (bacteria; PVB dispersion WX1, 32° C.): 8.1
- bacteria count after 4 wk after addition of NBDA (bacteria; PVB dispersion WX1, 32° C.): 38.4
- bacteria count after 6 mo after addition of NBDA (bacteria; PVB dispersion WX1, 32° C.): 5
- bacteria count after 8 wk after addition of NBDA (bacteria; PVB dispersion WX1, 32° C.): 4.6
- bacteria count after 9 mo after addition of NBDA (bacteria; PVB dispersion WX1, 32° C.): 8.9
- bacteria count after 12 mo after addition of NBDA (bacteria; PVB dispersion WX1, 32° C.): 16.8
- bacteria count after 4 mo after addition of NBDA (bacteria; PVB dispersion WX25, 32° C.): 68
- bacteria count after 4 wk after addition of NBDA (bacteria; PVB dispersion WX25, 32° C.): 94
- bacteria count after 6 mo after addition of NBDA (bacteria; PVB dispersion WX25, 32° C.): 170
- bacteria count after 8 wk after addition of NBDA (bacteria; PVB dispersion WX25, 32° C.): 82
- bacteria count after 9 mo after addition of NBDA (bacteria; PVB dispersion WX25, 32° C.): 238
- bacteria count after 12 mo after addition of NBDA (bacteria; PVB dispersion WX25, 32° C.): 181
- pH [1]: around 11.1
